From patent publication US20230257372A1 (CHONG KUN DANG PHARMACEUTICAL CORP., priority 2020, published 2023)
pIC50: −log10 of the molar value.

How the values were obtained:
[1] = molecular target: T1, human recombinant HDAC1 (Homo sapiens, UniProt Q13547); experiment: HDAC1 enzyme activity inhibition (HDAC Fluorimetric Drug Discovery Kit); format: biochemical; settings: human recombinant HDAC1; IC50 calculated with GraphPad Prism; read-out: HDAC1
T1 construct: purchased Enzo Life Science, Inc. BML-SE456
T1 sequence (Q13547 whole entry): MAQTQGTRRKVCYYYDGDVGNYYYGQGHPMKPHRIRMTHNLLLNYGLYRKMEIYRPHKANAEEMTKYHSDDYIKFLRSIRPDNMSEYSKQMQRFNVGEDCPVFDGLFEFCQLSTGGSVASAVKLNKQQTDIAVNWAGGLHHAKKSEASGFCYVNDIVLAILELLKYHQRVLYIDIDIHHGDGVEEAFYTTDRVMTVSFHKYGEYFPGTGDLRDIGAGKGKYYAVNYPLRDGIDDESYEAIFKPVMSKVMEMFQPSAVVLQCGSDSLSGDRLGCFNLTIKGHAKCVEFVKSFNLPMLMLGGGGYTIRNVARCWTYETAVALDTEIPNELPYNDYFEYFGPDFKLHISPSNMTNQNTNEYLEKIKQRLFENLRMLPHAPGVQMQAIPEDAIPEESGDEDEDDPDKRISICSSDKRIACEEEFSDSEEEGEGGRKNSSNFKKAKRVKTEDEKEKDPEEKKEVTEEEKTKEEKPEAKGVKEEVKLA
Summary of the method: (§1)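 Fluorimetric deacetylase read-out. 5-fold compound dilutions; […] enzyme, 10 μM substrate; 30° C, 60 min; developer 30 min.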

[2] = molecular target: T2, human recombinant HDAC6 (Homo sapiens, UniProt Q9UBN7); experiment: HDAC6 enzyme activity inhibition (HDAC Fluorimetric Drug Discovery Kit); format: biochemical; settings: for HDAC6 selectivity (fold): HDAC1 IC50 / HDAC6 IC50; for pIC50: human recombinant HDAC6, IC50 calculated with GraphPad Prism
T2 construct: purchased Calbiochem Inc. 382180
T2 sequence (Q9UBN7 1-1215): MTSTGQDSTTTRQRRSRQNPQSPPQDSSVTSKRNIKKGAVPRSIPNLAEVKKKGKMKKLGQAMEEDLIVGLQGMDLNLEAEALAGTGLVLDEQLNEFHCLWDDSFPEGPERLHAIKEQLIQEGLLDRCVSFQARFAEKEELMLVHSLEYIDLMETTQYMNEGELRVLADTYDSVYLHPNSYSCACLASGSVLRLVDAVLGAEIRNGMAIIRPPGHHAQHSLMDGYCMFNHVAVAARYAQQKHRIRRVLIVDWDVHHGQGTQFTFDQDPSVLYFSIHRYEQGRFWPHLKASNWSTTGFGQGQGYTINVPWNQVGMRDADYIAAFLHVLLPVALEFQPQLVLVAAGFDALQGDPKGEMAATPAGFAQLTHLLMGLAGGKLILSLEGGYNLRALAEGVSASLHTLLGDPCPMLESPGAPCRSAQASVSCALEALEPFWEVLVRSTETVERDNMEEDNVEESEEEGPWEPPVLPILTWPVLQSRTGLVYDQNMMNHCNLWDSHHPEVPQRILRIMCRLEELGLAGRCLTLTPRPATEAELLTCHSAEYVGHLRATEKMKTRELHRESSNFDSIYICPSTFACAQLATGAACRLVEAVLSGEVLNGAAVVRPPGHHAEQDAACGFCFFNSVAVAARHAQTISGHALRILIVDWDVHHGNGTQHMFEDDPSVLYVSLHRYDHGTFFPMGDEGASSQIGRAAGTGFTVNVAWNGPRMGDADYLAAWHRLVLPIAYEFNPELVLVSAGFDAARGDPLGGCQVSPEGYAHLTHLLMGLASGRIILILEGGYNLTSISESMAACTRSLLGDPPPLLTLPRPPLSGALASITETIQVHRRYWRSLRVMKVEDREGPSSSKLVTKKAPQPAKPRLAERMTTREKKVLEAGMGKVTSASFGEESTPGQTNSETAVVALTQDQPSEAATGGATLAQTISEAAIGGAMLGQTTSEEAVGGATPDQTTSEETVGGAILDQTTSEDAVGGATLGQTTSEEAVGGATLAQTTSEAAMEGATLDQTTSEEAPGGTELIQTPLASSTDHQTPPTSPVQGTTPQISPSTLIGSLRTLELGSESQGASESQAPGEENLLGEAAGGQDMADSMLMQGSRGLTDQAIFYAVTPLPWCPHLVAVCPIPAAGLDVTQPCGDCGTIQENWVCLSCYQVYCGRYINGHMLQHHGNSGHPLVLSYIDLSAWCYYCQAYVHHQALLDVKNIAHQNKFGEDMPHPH
Summary of the method: as §1

| SMILES | pIC50 [1] | HDAC6 selectivity (fold) [2] | pIC50 [2] |
| --- | --- | --- | --- |
| CN1CCC(Nc2ccc(F)c(-c3cn(Cc4ccc(-c5nnc(C(F)F)o5)cc4F)nn3)c2)CC1 [Compound 4435, N-(3-(1-(4-(5-(difluoromethyl)-1,3,4-oxadiazol-2-yl)-2-fluorobenzyl)-1H-1,2,3-triazol-4-yl)-4-fluorophenyl)-1-methylpiperidin-4-amine] | < 4.30 | 1677 fold | 7.53 |
| CC(C)N1CCC(Nc2ccc(F)c(-c3cn(Cc4ccc(-c5nnc(C(F)F)o5)cc4F)nn3)c2)CC1 [Compound 4436, N-(3-(1-(4-(5-(difluoromethyl)-1,3,4-oxadiazol-2-yl)-2-fluorobenzyl)-1H-1,2,3-triazol-4-yl)-4-fluorophenyl)-1-isopropylpiperidin-4-amine] | < 4.30 | 1369 fold | 7.44 |
| CC(=O)N1CCC(Nc2ccc(F)c(-c3cn(Cc4ccc(-c5nnc(C(F)F)o5)cc4F)nn3)c2)CC1 [Compound 4437, 1-(4-((3-(1-(4-(5-(difluoromethyl)-1,3,4-oxadiazol-2-yl)-2-fluorobenzyl)-1H-1,2,3-triazol-4-yl)-4-fluorophenyl)amino)piperidin-1-yl)ethan-1-one] | < 4.30 | 600 fold | 7.08 |
| CCCN1CCC(Nc2ccc(F)c(-c3cn(Cc4ccc(-c5nnc(C(F)F)o5)cc4F)nn3)c2)CC1 [Compound 4438, N-(3-(1-(4-(5-(difluoromethyl)-1,3,4-oxadiazol-2-yl)-2-fluorobenzyl)-1H-1,2,3-triazol-4-yl)-4-fluorophenyl)-1-propylpiperidin-4-amine] | < 4.30 | 934 fold | 7.27 |
| C[C@@H]1CN(c2cccc(-c3cn(Cc4ccc(-c5nnc(C(F)F)o5)cc4F)nn3)c2)C[C@H](C)N1 [Compound 4439, 2-(difluoromethyl)-5-(4-((4-(3-((3R,5S)-3,5-dimethylpiperazin-1-yl)phenyl)-1H-1,2,3-triazol-1-yl)methyl)-3-fluorophenyl)-1,3,4-oxadiazole] | < 4.30 | 1831 fold | 7.56 |
| C[C@@H]1CN(c2cccc(-c3cn(Cc4ccc(-c5nnc(C(F)F)o5)cc4)nn3)c2)C[C@H](C)N1 [Compound 4440, 2-(difluoromethyl)-5-(4-((4-(3-((3R,5S)-3,5-dimethylpiperazin-1-yl)phenyl)-1H-1,2,3-triazol-1-yl)methyl)phenyl)-1,3,4-oxadiazole] | < 4.30 | 1655 fold | 7.52 |
| C[C@@H]1CN(c2cccc(-c3cn(Cc4ccc(-c5nnc(C(F)F)o5)cc4)nn3)c2)C[C@H](C)N1C [Compound 4441, 2-(difluoromethyl)-5-(4-((4-(3-((3R,5S)-3,4,5-trimethylpiperazin-1-yl)phenyl)-1H-1,2,3-triazol-1-yl)methyl)phenyl)-1,3,4-oxadiazole] | < 4.30 | 1315 fold | 7.42 |
| CCN1[C@H](C)CN(c2cccc(-c3cn(Cc4ccc(-c5nnc(C(F)F)o5)cc4)nn3)c2)C[C@@H]1C [Compound 4442] | < 4.30 | 1256 fold | 7.40 |
| C[C@@H]1CN(c2cccc(-c3cn(Cc4ccc(-c5nnc(C(F)F)o5)cc4F)nn3)c2)C[C@H](C)N1C [Compound 4443, 2-(difluoromethyl)-5-(3-fluoro-4-((4-(3-((3R,5S)-3,4,5-trimethylpiperazin-1-yl)phenyl)-1H-1,2,3-triazol-1-yl)methyl)phenyl)-1,3,4-oxadiazole] | < 4.30 | 2183 fold | 7.64 |
| CCN1[C@H](C)CN(c2cccc(-c3cn(Cc4ccc(-c5nnc(C(F)F)o5)cc4F)nn3)c2)C[C@@H]1C [Compound 4444] | < 4.30 | 1872 fold | 7.57 |
| CC(C)N1CCN(C(=O)c2cccc(-c3cn(Cc4ccc(-c5nnc(C(F)F)o5)cn4)nn3)c2)CC1 [Compound 4448, (3-(1-((5-(5-(difluoromethyl)-1,3,4-oxadiazol-2-yl)pyridin-2-yl)methyl)-1H-1,2,3-triazol-4-yl)phenyl)(4-isopropylpiperazin-1-yl)methanone] | < 4.30 | 2873 fold | 7.76 |
| CN(C)CCN(C)C(=O)c1cccc(-c2cn(Cc3ccc(-c4nnc(C(F)F)o4)cn3)nn2)c1 [Compound 4449, 3-(1-((5-(5-(difluoromethyl)-1,3,4-oxadiazol-2-yl)pyridin-2-yl)methyl)-1H-1,2,3-triazol-4-yl)-N-(2-(dimethylamino)ethyl)-N-methylbenzamide] | < 4.30 | 3759 fold | 7.88 |
| Fc1ccc(N2CCNCC2)cc1-c1cn(Cc2ccc(-c3nnc(C(F)F)o3)cc2)nn1 [Compound 4450, 2-(difluoromethyl)-5-(4-((4-(2-fluoro-5-(piperazin-1-yl)phenyl)-1H-1,2,3-triazol-1-yl)methyl)phenyl)-1,3,4-oxadiazole] | < 4.30 | 2604 fold | 7.72 |
| CN1CCN(c2ccc(F)c(-c3cn(Cc4ccc(-c5nnc(C(F)F)o5)cc4)nn3)c2)CC1 [Compound 4451, 2-(difluoromethyl)-5-(4-((4-(2-fluoro-5-(4-methylpiperazin-1-yl)phenyl)-1H-1,2,3-triazol-1-yl)methyl)phenyl)-1,3,4-oxadiazole] | < 4.30 | 1976 fold | 7.77 |
| CCN1CCN(c2ccc(F)c(-c3cn(Cc4ccc(-c5nnc(C(F)F)o5)cc4)nn3)c2)CC1 [Compound 4452, 2-(difluoromethyl)-5-(4-((4-(5-(4-ethylpiperazin-1-yl)-2-fluorophenyl)-1H-1,2,3-triazol-1-yl)methyl)phenyl)-1,3,4-oxadiazole] | < 4.30 | 2463 fold | 7.69 |
| CC(C)N1CCN(c2ccc(F)c(-c3cn(Cc4ccc(-c5nnc(C(F)F)o5)cc4)nn3)c2)CC1 [Compound 4453, 2-(difluoromethyl)-5-(4-((4-(2-fluoro-5-(4-isopropylpiperazin-1-yl)phenyl)-1H-1,2,3-triazol-1-yl)methyl)phenyl)-1,3,4-oxadiazole] | < 4.30 | 3144 fold | 7.80 |
| Fc1ccc(N2CCN(C3CCC3)CC2)cc1-c1cn(Cc2ccc(-c3nnc(C(F)F)o3)cc2)nn1 [Compound 4454, 2-(4-((4-(5-(4-cyclobutylpiperazin-1-yl)-2-fluorophenyl)-1H-1,2,3-triazol-1-yl)methyl)phenyl)-5-(difluoromethyl)-1,3,4-oxadiazol] | < 4.30 | 632 fold | 7.10 |
| Fc1ccc(N2CCN(C3COC3)CC2)cc1-c1cn(Cc2ccc(-c3nnc(C(F)F)o3)cc2)nn1 [Compound 4455, 2-(difluoromethyl)-5-(4-((4-(2-fluoro-5-(4-(oxetan-3-yl)piperazin-1-yl)phenyl)-1H-1,2,3-triazol-1-yl)methyl)phenyl)-1,3,4-oxadiazole] | < 4.30 | 520 fold | 7.02 |
| CN1CC(c2cccc(-c3cn(Cc4ccc(-c5nnc(C(F)F)o5)cc4F)nn3)c2)C1 [Compound 4460, 2-(difluoromethyl)-5-(3-fluoro-4-((4-(3-(1-methylazetidin-3-yl)phenyl)-1H-1,2,3-triazol-1-yl)methyl)phenyl)-1,3,4-oxadiazole] | < 4.30 | 148 fold | 6.47 |
